Reference: US8604046B2, “Substituted piperidine spiro pyrrolidinone and piperidinone, preparation and therapeutic use thereof” (Sanofi, priority 2008, dated 2013)

How the values were obtained:
[1] = biological target: T1, rhesus H3 receptor (Macaca mulatta, UniProt Q865E1); assay: Rhesus H3 [3H]-methylhistamine radioligand binding assay; set-up: species or system rhesus monkey (Macacca Mulatta); conditions: [3H]-Methylhistamine 2 nM, rhesus H3 membranes, WGA SPA beads, Cheng-Prusoff
Experimental: (§1) Rhesus H3 membranes were prepared from the Flp-In T-REx 293 Cell Line (Invitrogen) stably transfected with pcDNA5/FRT/TO (Invitrogen) containing the rhesus monkey (Macacca Mulatta) 445 amino acid H3 receptor. (Genbank #AY231164). Stably transfected cultures were amplified in tissue culture flasks by standard tissue culture methods and induced to express rhesus H3 by exposure to 500 ng/ml tetracycline (Cellgro) for 24 hours. After induction, cells were dissociated from flasks utilizing Cell Stripper (Cellgro). Cells were centrifuged (1K×g, 5 min) and pellet frozen in an ethanol-dry ice bath to disrupt cell membranes. Frozen cell pellet was re-suspended in 5 mM HEPES (pH 7.4, Invitrogen) at 10 ml/1000 cm2 of harvested cells. The cell suspension was drawn through an 18 gauge needle (2-3×) followed by a 23 gauge needle (2-3×) to further disrupt cell membranes. The cell suspension was centrifuged (40K×g, 30 min). Cell membrane pellet was re-suspended in 5 mM HEPES (pH 7.4, Invitrogen) at a final protein concentration of 10 mg/ml. Rhesus H3 membranes were stored under liquid nitrogen prior to use in [3H]-Methylhistamine and GTP S radioligand binding assays.
Rhesus H3 radioligand binding assay was performed using rhesus H3 receptor membranes (prepared as described above), [3H]-Methylhistamine (Perkin Elmer) and WGA SPA beads (wheat germ agglutinin scintillation proximity assay) beads (Amersham). The assay was performed in 96-well Opti-Plates (Packard). Each reaction contained 50 μl rhesus H3 membranes (20-30 μg total protein), 50 μl WGA SPA beads (0.1 μg) and 50 μl of 83 Ci/mmol [^3H]-Methylhistamine (final concentration 2 nM) and 50 μl of tested compound. The compounds of this invention and/or vehicle were diluted with binding buffer from 10 mM DMSO stocks. Assay plates were sealed with TopSeal (Perkin Elmer) and mixed on shaker (25° C., 1 hour). Assay plates were read on TopCount scintillation counter (Packard). Results were analyzed by Hill transformation and Ki values were determined by Cheng-Prusoff equation.

[2] = biological target: T1, rhesus H3 receptor; assay: GTPγS radioligand binding assay, inhibition of rhesus H3 constitutive functional activity (inverse agonism); format: biochemical, rhesus monkey (Macacca Mulatta); set-up: concentration or dose not given beside the values; conditions: rhesus H3 cell membranes, relative to basal levels
Experimental: as §1

T1 sequence (Q865E1 1-445): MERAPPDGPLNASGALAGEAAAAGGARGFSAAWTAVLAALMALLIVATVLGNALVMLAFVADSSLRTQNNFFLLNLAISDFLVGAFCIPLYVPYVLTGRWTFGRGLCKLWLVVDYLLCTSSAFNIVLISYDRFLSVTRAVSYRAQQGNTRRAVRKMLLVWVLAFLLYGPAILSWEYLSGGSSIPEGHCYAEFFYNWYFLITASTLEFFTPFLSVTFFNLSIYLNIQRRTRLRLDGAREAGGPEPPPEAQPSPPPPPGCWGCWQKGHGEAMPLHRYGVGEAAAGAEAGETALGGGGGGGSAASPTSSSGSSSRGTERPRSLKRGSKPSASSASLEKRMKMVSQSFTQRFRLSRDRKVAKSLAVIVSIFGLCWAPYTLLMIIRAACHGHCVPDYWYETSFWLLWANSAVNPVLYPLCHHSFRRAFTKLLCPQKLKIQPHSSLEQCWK

Structure (SMILES) | Ki [1] [nM] | Inverse Agonism: % inhibition of Basal GTPγS binding in Rhesus H3 [2] [%]
C[C@H]1CCCN1C1CCN(c2ccc(N3CCC4(CCN(C(=O)c5ccc(F)cc5)CC4)C3=O)cc2)CC1 [Example 51, 8-(4-Fluoro-benzoyl)-2-{4-[4-(2S-2-methyl-pyrrolidin-1-yl)-piperidin-1-yl]-phenyl}-2,8-diaza-spiro[4.5]decan-1-one] | 0.08 | −17
C[C@H]1CCCN1C1CCN(c2ccc(N3CCC4(CCN(C(=O)C5CCCCC5)CC4)C3=O)c(F)c2)CC1 [Example 52, 8-Cyclohexanecarbonyl-2-{2-fluoro-4-[4-(2S-2-methyl-pyrrolidin-1-yl)-piperidin-1-yl]-phenyl}-2,8-diaza-spiro[4.5]decan-1-one] | 0.2 | −24
C[C@H]1CCCCN1[C@H]1CCN(c2ccc(N3CCC4(CCN(S(=O)(=O)c5ccc(F)cc5)CC4)C3=O)cc2)C1 [Example 53, 8-(4-Fluoro-benzenesulfonyl)-2-{4-[3-((2S,3′S)-2-methyl-piperidin-1-yl)-pyrrolidin-1-yl]-phenyl}-2,8-diaza-spiro[4.5]decan-1-one] | 1.9 | −13
C[C@H]1CCCCN1[C@H]1CCN(c2ccc(N3CCC4(CCN(C(=O)C5CCOCC5)CC4)C3=O)cc2)C1 [Example 54, 2-{4-[3-((2S,3′S)-2-Methyl-piperidin-1-yl)-pyrrolidin-1-yl]-phenyl}-8-(tetrahydro-pyran-4-carbonyl)-2,8-diaza-spiro[4.5]decan-1-one] | 3.3 | −24
C[C@H]1CCCCN1[C@H]1CCN(c2ccc(N3CCC4(CCN(C(=O)C5CCCC5)CC4)C3=O)c(C(F)(F)F)c2)C1 [Example 55, 8-Cyclopentanecarbonyl-2-{4-[3-((2S,3′S)-2-methyl-piperidin-1-yl)-pyrrolidin-1-yl]-2-trifluoromethyl-phenyl}-2,8-diaza-spiro[4.5]decan-1-one] | 2.1 | −27
C[C@H]1CCCN1C1CCN(c2ccc(N3CCC4(CCN(CC5CC5)CC4)C3=O)c(F)c2)CC1 [Example 56, 8-Cyclopropylmethyl-2-{2-fluoro-4-[4-(2S-2-methyl-pyrrolidin-1-yl)-piperidin-1-yl]-phenyl}-2,8-diaza-spiro[4.5]decan-1-one] | 0.04 | −23
C[C@H]1CCCN1C1CCN(c2ccc(N3CCC4(CCN(CC5CCCC5)CC4)C3=O)c(F)c2)CC1 [Example 57, 8-Cyclopentyl methyl-2-{2-fluoro-4-[4-(2S-2-methyl-pyrrolidin-1-yl)-piperidin-1-yl]-phenyl}-2,8-diaza-spiro[4.5]decan-1-one] | 0.1 | −21
C[C@H]1CCCCN1[C@H]1CCN(c2ccc(N3CCC4(CCN(CC5CCCCC5)CC4)C3=O)c(C(F)(F)F)c2)C1 [Example 58, 8-Cyclohexyl methyl-2-{4-[3-((2S,3′S)-2-methyl-piperidin-1-yl)-pyrrolidin-1-yl]-2-trifluoromethyl-phenyl}-2,8-diaza-spiro[4.5]decan-1-one] | 0.15 | −19
C[C@H]1CCCCN1[C@H]1CCN(c2ccc(N3CCC4(CCN(CC5CCOCC5)CC4)C3=O)c(F)c2)C1 [Example 59, 2-{2-Fluoro-4-[3-((2S,3′S)-2-methyl-piperidin-1-yl)-pyrrolidin-1-yl]-phenyl}-8-(tetrahydro-pyran-4-ylmethyl)-2,8-diaza-spiro[4.5]decan-1-one] | 4.6 | −19
C[C@H]1CCCN1[C@H]1CCN(c2ccc(N3CCC4(CCN(C(=O)Cc5ccccc5)CC4)C3=O)c(C(F)(F)F)c2)C1 [Example 60, 2-[4-((2S,3′S)-2-Methyl-[1,3′]bipyrrolidinyl-1′-yl)-2-trifluoromethyl-phenyl]-8-phenylacetyl-2,8-diaza-spiro[4.5]decan-1-one] | 144 | −19
COCC(=O)N1CCC2(CC1)CCN(c1ccc(N3CC[C@H](N4CCC[C@@H]4C)C3)cc1C(F)(F)F)C2=O [Example 61, 8-(2-Methoxy-acetyl)-2-[4-((2S,3′S)-2-methyl-[1,3′]bipyrrolidinyl-1′-yl)-2-trifluoromethyl-phenyl]-2,8-diaza-spiro[4.5]decan-1-one] | 193 | −7
C[C@H]1CCCN1[C@H]1CCN(c2ccc(N3CCC4(CCN(C(=O)c5ccc6ccccc6c5)CC4)C3=O)c(C(F)(F)F)c2)C1 [Example 62, 2-[4-((2S,3′S)-2-Methyl-[1,3′]bipyrrolidinyl-1′-yl)-2-trifluoromethyl-phenyl]-8-(naphthalene-2-carbonyl)-2,8-diaza-spiro[4.5]decan-1-one] | 8.1 | −19
C[C@H]1CCCN1[C@H]1CCN(c2ccc(N3CCC4(CCN(C(=O)c5ccccc5)CC4)C3=O)c(C(F)(F)F)c2)C1 [Example 63, 8-Benzoyl-2-[4-((2S,3′S)-2-methyl-[1,3′]bipyrrolidinyl-1′-yl)-2-trifluoromethyl-phenyl]-2,8-diaza-spiro[4.5]decan-1-one] | 64 | −18
C[C@H]1CCCN1[C@H]1CCN(c2ccc(N3CCC4(CCN(C(=O)c5ccoc5)CC4)C3=O)c(C(F)(F)F)c2)C1 [Example 64, 8-(Furan-3-carbonyl)-2-[4-((2S,3′S)-2-methyl-[1,3′]bipyrrolidinyl-1′-yl)-2-trifluoromethyl-phenyl]-2,8-diaza-spiro[4.5]decan-1-one] | 9.6 | −19
COc1ccc(S(=O)(=O)N2CCC3(CCN(c4ccc(N5CC[C@H](N6CCC[C@@H]6C)C5)cc4C(F)(F)F)C3=O)CC2)cc1 [Example 65, 8-(4-Methoxy-benzenesulfonyl)-2-[4-((2S,3′S)-2-methyl-[1,3′]bipyrrolidinyl-1′-yl)-2-trifluoromethyl-phenyl]-2,8-diaza-spiro[4.5]decan-1-one] | 10.6 | −18
C[C@H]1CCCN1[C@H]1CCN(c2ccc(N3CCC4(CCN(Cc5ccco5)CC4)C3=O)c(C(F)(F)F)c2)C1 [Example 66, 8-Furan-2-ylmethyl-2-[4-((2S,3′S)-2-methyl-[1,3′]bipyrrolidinyl-1′-yl)-2-trifluoromethyl-phenyl]-2,8-diaza-spiro[4.5]decan-1-one] | 5.5 | −19
C[C@H]1CCCN1[C@H]1CCN(c2ccc(N3CCC4(CCN(CC5CC5)CC4)C3=O)c(C(F)(F)F)c2)C1 [Example 67, 8-Cyclopropylmethyl-2-[4-((2S,3′S)-2-methyl-[1,3′]bipyrrolidinyl-1′-yl)-2-trifluoromethyl-phenyl]-2,8-diaza-spiro[4.5]decan-1-one] | 1.4 | −12
C[C@H]1CCCN1[C@H]1CCN(c2ccc(N3CCC4(CCN(CC5CCOCC5)CC4)C3=O)c(C(F)(F)F)c2)C1 [Example 68, 2-[4-((2S,3′S)-2-Methyl-[1,3′]bipyrrolidinyl-1′-yl)-2-trifluoromethyl-phenyl]-8-(tetrahydro-pyran-4-ylmethyl)-2,8-diaza-spiro[4.5]decan-1-one] | 4.2 | −19
C[C@H]1CCCN1[C@H]1CCN(c2ccc(N3CCC4(CCNCC4)C3=O)c(C(F)(F)F)c2)C1.Cl [Example 69, 2-[4-((2S,3′S)-2-Methyl-[1,3′]bipyrrolidinyl-1′-yl)-2-trifluoromethyl-phenyl]-2,8-diaza-spiro[4.5]decan-1-one Hydrochloride] | 0.09 | −28
